From US8569509B2, “Thiazole-4-carboxylic acid esters and thioesters as plant protection agents” (priority 2008, dated 2013) come the findings set out here.

Read-outs that look alike come from different tables or passages of the source.

Series [1] is described as follows: log P determination (HPLC, calibration with unbranched alkan-2-ones). It counts as physicochemical. How it is done:
The calibration is carried out using unbranched alkan-2-ones (having 3 to 16 carbon atoms) with known log P values (determination of the log P values by the retention times using linear interpolation between two successive alkanones). The lambda-maX values were determined in the maxima of the chromatographic signals using the UV spectra from 200 nm to 400 nm.

Series [2] relates to Plasmopara viticola. Kind of series: Plasmopara test (grapevine)/protective. It is filed as in vivo. The conditions noted are these: grapevine plants, protective, application rate 1 ppm, evaluation 6 days after inoculation. How it is done: Plasmopara Test (Grapevine)/Protective
After the spray coating has dried on, the plants are inoculated with an aqueous spore suspension of Plasmopara viticola and then remain in an incubation cabin at about 20° C. and 100% relative atmospheric humidity for 1 day. The plants are then placed in a greenhouse at about 21° C. and about 90% atmospheric humidity for 4 days. The plants are then moistened and placed in an incubation cabin for 1 day.
Evaluation is carried out 6 days after the inoculation.

The subject of series [3] is Plasmopara viticola. Kind of series: Plasmopara test (grapevine)/curative. Conditions: grapevine plants, curative, application rate 100 ppm, evaluation 6 days after inoculation. It counts as in vivo.
Series [4] relates to Phytophthora infestans. It counts as in vivo. Conditions: tomato plants, protective, application rate 10 ppm, evaluation 3 days after inoculation.
[5] abbreviates: * LC-MS determination in the acidic range at pH 2.7, mobile phases 0.1% aqueous formic acid and acetonitrile (0.1% formic acid), linear gradient 10% to 95% acetonitrile, reversed-phase C 18 HPLC.
The mark [6] stands for this setting: pH 2.7, read-out: log P (pH 2.7).
The mark [7] stands for this setting: reversed-phase C18 HPLC column, * LC-MS determination in the acidic range at pH 2.7, mobile phases 0.1% aqueous formic acid and acetonitrile (0.1% formic acid), linear gradient 10% to 95% acetonitrile, reversed-phase C 18 HPLC, read-out: log p.

`Cc1cc(C(F)(F)F)nn1CC(=O)N1CCC(c2nc(C(=O)OC3CCCc4ccccc43)cs2)CC1` (centres unmarked) [Ex. 6]: in series [1] (reversed-phase (C18) HPLC column, ** determination in the acidic range, pH 2.3, 0.1% aqueous phosphoric acid and acetonitrile, linear gradient 10% to 95% acetonitrile, read-out: log p), the chromatographic logP was 4.01. Also, the Efficacy in % in series [2] is 91%; in series [3], 84%. Regarding `Cc1cc(C(F)(F)F)nn1CC(=O)N1CCC(c2nc(C(=O)OCc3ccccc3Cl)cs2)CC1` [Ex. 23], the chromatographic logP in series [1] (reversed-phase (C18) HPLC column, * LC-MS determination in the acidic range, pH 2.7, 0.1% aqueous formic acid and acetonitrile, linear gradient 10% to 95% acetonitrile, read-out: log p) amounted to 3.7. For the same molecule, the Efficacy in % in series [4] was 94%. Turning to `Cc1cc(C(F)(F)F)nn1CC(=O)N1CCC(c2nc(C(=O)OCc3ccc(OC(F)(F)F)cc3)cs2)CC1` [compound 819], the log p in series [1] (setting [5]) was 3.99*. On to `Cc1cc(C(F)(F)F)nn1CC(=O)N1CCC(c2nc(C(=O)OCc3ccccc3Br)cs2)CC1` [compound 820, 2-Bromobenzyl 2-(1-{[5-methyl-3-(trifluoromethyl)-1H-pyrazol-1-yl]acetyl}piperidin-4-yl)-1,3-thiazole-4-carboxylate], for which the chromatographic logP in series [1] (setting [6]) and in series [1] (setting [7]) was 3.8 each time.

Take `Cc1cc(C(F)(F)F)nn1CC(=O)N1CCC(c2nc(C(=O)Oc3ccccc3-c3ccccc3)cs2)CC1` [compound 821]: the log p in series [1] (setting [5]) is listed as 3.96*. On the same count and under the same terms, next, `Cc1cc(C(F)(F)F)nn1CC(=O)N1CCC(c2nc(C(=O)Oc3cccc(Oc4ccccc4)c3)cs2)CC1` [compound 824]: 4.18*; `Cc1cc(C(F)(F)F)nn1CC(=O)N1CCC(c2nc(C(=O)Oc3ccc(Oc4ccccc4)cc3)cs2)CC1` [compound 825]: 4.14*. Still for that read-out and setting: the value for `C#CC1(OC(=O)c2csc(C3CCN(C(=O)Cn4nc(C(F)(F)F)cc4C)CC3)n2)CCCCC1` [compound 826] was 3.76*; that for `Cc1cc(C(F)(F)F)nn1CC(=O)N1CCC(c2nc(C(=O)OC3(C#N)CCCCC3)cs2)CC1` [compound 827] was 3.33*; that for `Cc1cc(C(F)(F)F)nn1CC(=O)N1CCC(c2nc(C(=O)OC3CCC(C(C)(C)C)CC3)cs2)CC1` (centres unmarked) [compound 828] was 5.19*.

As to `Cc1cc(C(F)(F)F)nn1CC(=O)N1CCC(c2nc(C(=O)OC3CC(C)CCC3C(C)C)cs2)CC1` (centres unmarked) [compound 829], in series [1] (setting [5]), the log p is 5.22*. Same read-out and setting: the value for `Cc1cc(C(F)(F)F)nn1CC(=O)N1CCC(c2nc(C(=O)OC3CCC4(CC3)OCCO4)cs2)CC1` [compound 830] was 2.90*. Still for that read-out and setting: the value for `Cc1cc(C(F)(F)F)nn1CC(=O)N1CCC(c2nc(C(=O)OC3C(C)CCCC3C)cs2)CC1` (centres unmarked) [compound 831] was 4.40*; that for `Cc1cc(C(F)(F)F)nn1CC(=O)N1CCC(c2nc(C(=O)OC3CCCCC3C)cs2)CC1` (centres unmarked) [compound 832] was 4.12*.

Take `CCCCCCCCOC(=O)c1csc(C2CCN(C(=O)Cn3nc(C(F)(F)F)cc3C)CC2)n1` [compound 833]: in series [1] (setting [5]), the log p is recorded as 5.02*. In the case of `COc1ccc(COC(=O)c2csc(C3CCN(C(=O)Cn4nc(C(F)(F)F)cc4C)CC3)n2)c(OC)c1` [compound 834], the log p in series [1] (setting [5]) was 3.33*.

As for `Cc1cc(C(F)(F)F)nn1CC(=O)N1CCC(c2nc(C(=O)OCc3c(F)cc(F)cc3F)cs2)CC1` [compound 835], in series [1] (setting [5]), the log p is listed as 3.53*. On the same count and under the same terms, next, `Cc1cc(C(F)(F)F)nn1CC(=O)N1CCC(c2nc(C(=O)OCc3ccccc3C(F)(F)F)cs2)CC1` [compound 836]: 3.84*.

Consider `Cc1cc(C(F)(F)F)nn1CC(=O)N1CCC(c2nc(C(=O)OCc3ccccc3OC(F)(F)F)cs2)CC1` [compound 837], for which the log p in series [1] (setting [5]) was 3.95*. On the same count and under the same terms, the value for `CC(C)(C)c1cc(C(F)(F)F)n(CC(=O)N2CCC(c3nc(C(=O)OCC4CCCCC4)cs3)CC2)n1` [compound 847] was 4.75*. Same read-out and setting: next, `CC(C)(C)c1cc(C(F)(F)F)nn1CC(=O)N1CCC(c2nc(C(=O)OCC3CCCCC3)cs2)CC1` [compound 848]: 4.51*; `CC(C)(C)c1cc(C(F)(F)C(F)(F)F)n(CC(=O)N2CCC(c3nc(C(=O)OCC4CCCCC4)cs3)CC2)n1` [compound 849]: 5.08*. Same read-out and setting: next, `CC(C)(C)c1cc(C(F)(F)C(F)(F)F)nn1CC(=O)N1CCC(c2nc(C(=O)OCC3CCCCC3)cs2)CC1` [compound 850]: 4.94*. Consider `CC(C)c1cc(C(F)(F)F)n(CC(=O)N2CCC(c3nc(C(=O)OCC4CCCCC4)cs3)CC2)n1` [compound 851], for which the log p in series [1] (setting [5]) was 4.35*.

As for `CCc1cc(C(F)(F)F)n(CC(=O)N2CCC(c3nc(C(=O)OCC4CCCCC4)cs3)CC2)n1` [compound 852], the log p in series [1] (setting [5]) is 3.99*. Still for that read-out and setting: the value for `Cc1cc(C(F)(F)F)nn1CC(=O)N1CCC(c2nc(C(=O)O[C@H]3CCCc4ccccc43)cs2)CC1` [compound 853] was 4.06*. Take `O=C(OC1CCCCC1)c1csc(C2CCN(C(=S)Cn3nc(C(F)F)cc3C(F)F)CC2)n1` [compound 854, Cyclohexyl 2-(1-{2-[3,5-bis(difluoromethyl)-1H-pyrazol-1-yl]ethanethioyl}piperidin-4-yl)-1,3-thiazole-4-carboxylate]: the chromatographic logP in series [1] (setting [6]) and in series [1] (setting [7]) was 4.23 each time.

As to `Cc1cc(C(F)(F)F)nn1CC(=O)N1CCC(c2nc(C(=O)N(C)C3CCCc4ccccc43)cs2)CC1` (centres unmarked) [drawing 26, reference compound], the Efficacy in % in series [2] was found to be 72%. Consider `Cc1cc(C(F)(F)F)nn1CC(=O)N1CCC(c2nc(C(=O)N(C)C3CCCc4ccccc43)cs2)CC1` (centres unmarked) [drawing 28, reference compound], for which, in series [3], the Efficacy in % was 37%. Turning to `Cc1cc(C(F)(F)F)nn1CC(=O)N1CCC(c2nc(C(=O)NCc3ccccc3Cl)cs2)CC1` [reference compound], in series [4], the Efficacy in % came to 65%.
